Values quoted from earlier work as cited in article PMC3433420 (PLoS ONE, 2012).
Read-outs that look alike come from different tables or passages of the source.

Molecular target: SH2 and PTB domains
Conditions: cited from earlier work
From the text: Supplement pone.0044471.s022.xlsx, sheet "Most recent PM interactions" | column: Kd || Supplement pone.0044471.s022.xlsx, sheet "All original PM interactions" | column: Kd

[1] = protein ABL2, ref Jones et al. 2006 / Kaushansky et al. Mol Biosys 2008 / Kaushansky et al. Chem and Biol 2008
[2] = protein BLK, ref Jones et al. 2006 / Kaushansky et al. Mol Biosys 2008 / Kaushansky et al. Chem and Biol 2008
[3] = protein RASA1-N, ref Jones et al. 2006 / Kaushansky et al. Mol Biosys 2008 / Kaushansky et al. Chem and Biol 2008
[4] = protein SYK-NC, ref Jones et al. 2006 / Kaushansky et al. Mol Biosys 2008 / Kaushansky et al. Chem and Biol 2008
[5] = protein YES1, ref Jones et al. 2006 / Kaushansky et al. Mol Biosys 2008 / Kaushansky et al. Chem and Biol 2008
[6] = Protein ABL2, most recent PM interactions, ref Jones et al. 2006 / Kaushansky et al. Chem and Biol 2008
[7] = Protein SHC1-PTB, most recent PM interactions, ref Jones et al. 2006 / Kaushansky et al. Chem and Biol 2008
[8] = protein SHB, ref Jones et al. 2006 / Kaushansky et al. Mol Biosys 2008 / Kaushansky et al. Chem and Biol 2008

Substance: EEYEpYMNRRRRHd [ErbB3 pY1199, N-terminally rhodamine-labeled 13-mer phosphopeptide]
- Kd (protein ABL2, ref Kaushansky et al. Chem and Biol 2008): 300 nM
- Kd (protein BLK, ref Kaushansky et al. Chem and Biol 2008): 1810 nM
- Kd (protein FGR, ref Kaushansky et al. Chem and Biol 2008): 1130 nM
- Kd (protein PIK3R1-NC, ref Kaushansky et al. Chem and Biol 2008): 1510 nM
- Kd (protein PIK3R2-N, ref Kaushansky et al. Chem and Biol 2008): 1350 nM
- Kd (protein PIK3R3-N, ref Kaushansky et al. Chem and Biol 2008): 1380 nM
- Kd (protein PIK3R3-NC, ref Kaushansky et al. Chem and Biol 2008): 1460 nM
- Kd (protein RASA1-N, ref Kaushansky et al. Chem and Biol 2008): 310 nM
- Kd (protein YES1, ref Kaushansky et al. Chem and Biol 2008): 590 nM
- Kd (protein ZAP70-NC, ref Kaushansky et al. Chem and Biol 2008): 1470 nM

Substance: ELMTFGSKPpYDGIPASEd [ErbB1 915]
- Kd (Protein ABL2, most recent PM interactions, ref Jones et al. 2006 / Kaushansky et al. Mol Biosys 2008 / Kaushansky et al. Chem and Biol 2008): 180 nM
- Kd (Protein BLK, most recent PM interactions, ref Jones et al. 2006 / Kaushansky et al. Mol Biosys 2008 / Kaushansky et al. Chem and Biol 2008): 1180 nM
- Kd (Protein RASA1-N, most recent PM interactions, ref Jones et al. 2006 / Kaushansky et al. Mol Biosys 2008 / Kaushansky et al. Chem and Biol 2008): 1410 nM
- Kd (Protein SHB, most recent PM interactions, ref Jones et al. 2006 / Kaushansky et al. Mol Biosys 2008 / Kaushansky et al. Chem and Biol 2008): 1060 nM
- Kd (Protein SYK-NC, most recent PM interactions, ref Jones et al. 2006 / Kaushansky et al. Mol Biosys 2008 / Kaushansky et al. Chem and Biol 2008): 1550 nM
- Kd (Protein YES1, most recent PM interactions, ref Jones et al. 2006 / Kaushansky et al. Mol Biosys 2008 / Kaushansky et al. Chem and Biol 2008): 330 nM

Substance: ENAEpYLRVAPQSd [ErbB1 pY1197, N-terminally rhodamine-labeled 13-mer phosphopeptide]
- Kd [1]: 210 nM
- Kd [2]: 500 nM
- Kd (protein CRK, ref Jones et al. 2006 / Kaushansky et al. Mol Biosys 2008 / Kaushansky et al. Chem and Biol 2008): 1070 nM
- Kd (protein CRKL, ref Jones et al. 2006 / Kaushansky et al. Mol Biosys 2008 / Kaushansky et al. Chem and Biol 2008): 1340 nM
- Kd (protein FGR, ref Jones et al. 2006 / Kaushansky et al. Mol Biosys 2008 / Kaushansky et al. Chem and Biol 2008): 620 nM
- Kd (protein GRB2, ref Jones et al. 2006 / Kaushansky et al. Mol Biosys 2008 / Kaushansky et al. Chem and Biol 2008): 420 nM
- Kd (protein ITK, ref Jones et al. 2006 / Kaushansky et al. Mol Biosys 2008 / Kaushansky et al. Chem and Biol 2008): 500 nM
- Kd (protein LYN, ref Jones et al. 2006 / Kaushansky et al. Mol Biosys 2008 / Kaushansky et al. Chem and Biol 2008): 170 nM
- Kd (protein PIK3R1-N, ref Jones et al. 2006 / Kaushansky et al. Mol Biosys 2008 / Kaushansky et al. Chem and Biol 2008): 500 nM
- Kd (protein PIK3R1-NC, ref Jones et al. 2006 / Kaushansky et al. Mol Biosys 2008 / Kaushansky et al. Chem and Biol 2008): 500 nM
- Kd (protein PIK3R2-N, ref Jones et al. 2006 / Kaushansky et al. Mol Biosys 2008 / Kaushansky et al. Chem and Biol 2008): 500 nM
- Kd (protein PIK3R3-NC, ref Jones et al. 2006 / Kaushansky et al. Mol Biosys 2008 / Kaushansky et al. Chem and Biol 2008): 810 nM
- Kd (protein PLCG2-NC, ref Jones et al. 2006 / Kaushansky et al. Mol Biosys 2008 / Kaushansky et al. Chem and Biol 2008): 500 nM
- Kd [3]: 710 nM
- Kd (protein RASA1-NC, ref Jones et al. 2006 / Kaushansky et al. Mol Biosys 2008 / Kaushansky et al. Chem and Biol 2008): 500 nM
- Kd (protein SHC1-PTB, ref Jones et al. 2006 / Kaushansky et al. Mol Biosys 2008 / Kaushansky et al. Chem and Biol 2008): 340 nM
- Kd (protein SHC1, ref Jones et al. 2006 / Kaushansky et al. Mol Biosys 2008 / Kaushansky et al. Chem and Biol 2008): 780 nM
- Kd (protein SHC3, ref Jones et al. 2006 / Kaushansky et al. Mol Biosys 2008 / Kaushansky et al. Chem and Biol 2008): 1030 nM
- Kd (protein SRC, ref Jones et al. 2006 / Kaushansky et al. Mol Biosys 2008 / Kaushansky et al. Chem and Biol 2008): 380 nM
- Kd (protein SYK-N, ref Jones et al. 2006 / Kaushansky et al. Mol Biosys 2008 / Kaushansky et al. Chem and Biol 2008): 290 nM
- Kd [4]: 380 nM
- Kd (protein TEC, ref Jones et al. 2006 / Kaushansky et al. Mol Biosys 2008 / Kaushansky et al. Chem and Biol 2008): 480 nM
- Kd [5]: 130 nM

Substance: ENPEpYLGLDVPVd [ErbB2 pY1248, N-terminally rhodamine-labeled 13-mer phosphopeptide]
- Kd (Protein ABL2, original PM interactions, ref Jones et al. 2006 / Kaushansky et al. Chem and Biol 2008): 210 nM
- Kd (Protein SHC1-PTB, original PM interactions, ref Jones et al. 2006 / Kaushansky et al. Chem and Biol 2008): 280 nM

Substance: ENPEpYLSEFSLKd [ErbB4 pY1284, N-terminally rhodamine-labeled 13-mer phosphopeptide]
- Kd (protein ABL2, ref Jones et al. 2006): 220 nM
- Kd (protein PIK3R2-NC, all original PM interactions, ref Jones et al. 2006): 2000 nM
- Kd (protein PIK3R2-NC, ref Jones et al. 2006): 2000 nM
- Kd (protein PIK3R3-NC, all original PM interactions, ref Jones et al. 2006): 2000 nM
- Kd (protein PIK3R3-NC, ref Jones et al. 2006): 2000 nM
- Kd (protein PLCG1-NC, all original PM interactions, ref Jones et al. 2006): 2000 nM
- Kd (protein PLCG1-NC, ref Jones et al. 2006): 2000 nM
- Kd (protein RASA1-N, ref Jones et al. 2006): 710 nM
- Kd (protein SH2B3, all original PM interactions, ref Jones et al. 2006): 2000 nM
- Kd (protein SH2B3, ref Jones et al. 2006): 2000 nM
- Kd (protein SHC1-PTB, ref Jones et al. 2006): 24 nM
- Kd (protein SLA2, all original PM interactions, ref Jones et al. 2006): 2000 nM
- Kd (protein SLA2, ref Jones et al. 2006): 2000 nM
- Kd (protein SYK-NC, ref Jones et al. 2006): 1670 nM
- Kd (protein VAV2, all original PM interactions, ref Jones et al. 2006): 2000 nM
- Kd (protein VAV2, ref Jones et al. 2006): 2000 nM

Substance: FGGAVENPEpYLTPQGGA [ErbB2 1196]
- Kd [6]: 480 nM
- Kd (Protein CRKL, most recent PM interactions, ref Jones et al. 2006 / Kaushansky et al. Chem and Biol 2008): 1440 nM
- Kd (Protein FGR, most recent PM interactions, ref Jones et al. 2006 / Kaushansky et al. Chem and Biol 2008): 1680 nM
- Kd (Protein GRB2, most recent PM interactions, ref Jones et al. 2006 / Kaushansky et al. Chem and Biol 2008): 1330 nM
- Kd (Protein ITK, most recent PM interactions, ref Jones et al. 2006 / Kaushansky et al. Chem and Biol 2008): 770 nM
- Kd (Protein NCK2, most recent PM interactions, ref Jones et al. 2006 / Kaushansky et al. Chem and Biol 2008): 1100 nM
- Kd (Protein PIK3R1-NC, most recent PM interactions, ref Jones et al. 2006 / Kaushansky et al. Chem and Biol 2008): 230 nM
- Kd (Protein PIK3R2-N, most recent PM interactions, ref Jones et al. 2006 / Kaushansky et al. Chem and Biol 2008): 1280 nM
- Kd (Protein PIK3R3-N, most recent PM interactions, ref Jones et al. 2006 / Kaushansky et al. Chem and Biol 2008): 1390 nM
- Kd (Protein PIK3R3-NC, most recent PM interactions, ref Jones et al. 2006 / Kaushansky et al. Chem and Biol 2008): 1340 nM
- Kd (Protein PLCG2-NC, most recent PM interactions, ref Jones et al. 2006 / Kaushansky et al. Chem and Biol 2008): 1350 nM
- Kd (Protein RASA1-N, most recent PM interactions, ref Jones et al. 2006 / Kaushansky et al. Chem and Biol 2008): 670 nM
- Kd [7]: 350 nM
- Kd (Protein SYK-C, most recent PM interactions, ref Jones et al. 2006 / Kaushansky et al. Chem and Biol 2008): 1240 nM
- Kd (Protein SYK-NC, most recent PM interactions, ref Jones et al. 2006 / Kaushansky et al. Chem and Biol 2008): 1330 nM
- Kd (Protein VAV1, most recent PM interactions, ref Jones et al. 2006 / Kaushansky et al. Chem and Biol 2008): 1250 nM
- Kd (Protein VAV2, most recent PM interactions, ref Jones et al. 2006 / Kaushansky et al. Chem and Biol 2008): 230 nM
- Kd (Protein VAV3, most recent PM interactions, ref Jones et al. 2006 / Kaushansky et al. Chem and Biol 2008): 600 nM
- Kd (Protein YES1, most recent PM interactions, ref Jones et al. 2006 / Kaushansky et al. Chem and Biol 2008): 1190 nM

Substance: FLQRpYSSDPTGAd [ErbB1 pY1069, N-terminally rhodamine-labeled 13-mer phosphopeptide]
- Kd [1]: 2000 nM
- Kd [8]: 860 nM
- Kd [5]: 300 nM

Substance: GSKPpYDGIPASEd [ErbB1 pY915, N-terminally rhodamine-labeled 13-mer phosphopeptide]
- Kd [1]: 140 nM
- Kd [2]: 1180 nM
- Kd [3]: 1470 nM
- Kd [8]: 1060 nM
- Kd [4]: 1550 nM
- Kd [5]: 330 nM

Substance: GTPTAENPEpYLGLDVPV [ErbB2 1248]
- Kd [6]: 210 nM
- Kd [7]: 280 nM
